In ChEMBL document CHEMBL5241074, “Dual-target compounds for Alzheimer's disease: Natural and synthetic AChE and BACE-1 dual-inhibitors and their structure-activity relationship (SAR)” (Eur J Med Chem, 2021) one finds inhibition and IC50 data, which are given here for 19 molecules.

SMILES strings stand for the structures.

Test [1] addresses T1, Beta-secretase 1 (Homo sapiens, UniProt P56817). The test can be described thus: Inhibition of BACE1 (unknown origin) at 2.5 uM relative to control.
For test [2], the target named is T2, Acetylcholinesterase (Homo sapiens, UniProt P22303). The test can be described thus: Inhibition of AChE (unknown origin).
Test [3] has as its target T1, Beta-secretase 1. The test can be described thus: Inhibition of BACE1 (unknown origin) at 5 uM relative to control.
Test [4] has as its target T2, Acetylcholinesterase. The test can be described thus: Inhibition of AChE (unknown origin) at 100 uM relative to control.
Test [5] deals with T1, Beta-secretase 1. The test can be described thus: Inhibition of BACE1 (unknown origin) at 100 uM relative to control.
Test [6] has as its target Acetylcholinesterase (Electrophorus electricus, UniProt O42275). The test can be described thus: Inhibition of Electrophorus electricus AchE.
Test [7] addresses T1, Beta-secretase 1. The test can be described thus: Inhibition of human recombinant BACE1.
Test [8] deals with T2, Acetylcholinesterase. The test can be described thus: Inhibition of human recombinant AchE.
The target of test [9] is T1, Beta-secretase 1. The test can be described thus: Inhibition of BACE1 (unknown origin).

T1 sequence (P56817 whole entry): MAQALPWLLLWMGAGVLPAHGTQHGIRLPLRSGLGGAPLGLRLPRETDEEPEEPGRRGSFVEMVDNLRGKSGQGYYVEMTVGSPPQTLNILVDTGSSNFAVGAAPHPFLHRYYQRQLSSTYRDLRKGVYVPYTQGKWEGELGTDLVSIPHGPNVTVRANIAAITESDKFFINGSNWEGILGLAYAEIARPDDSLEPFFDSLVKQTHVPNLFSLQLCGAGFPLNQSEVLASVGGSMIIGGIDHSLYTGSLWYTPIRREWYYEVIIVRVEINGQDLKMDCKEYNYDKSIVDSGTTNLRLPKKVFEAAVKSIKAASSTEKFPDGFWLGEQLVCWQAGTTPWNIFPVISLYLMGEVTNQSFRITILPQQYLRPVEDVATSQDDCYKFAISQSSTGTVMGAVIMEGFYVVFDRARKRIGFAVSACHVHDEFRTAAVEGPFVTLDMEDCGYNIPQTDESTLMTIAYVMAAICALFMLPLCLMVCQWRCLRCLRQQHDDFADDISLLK
T2 sequence (P22303 whole entry): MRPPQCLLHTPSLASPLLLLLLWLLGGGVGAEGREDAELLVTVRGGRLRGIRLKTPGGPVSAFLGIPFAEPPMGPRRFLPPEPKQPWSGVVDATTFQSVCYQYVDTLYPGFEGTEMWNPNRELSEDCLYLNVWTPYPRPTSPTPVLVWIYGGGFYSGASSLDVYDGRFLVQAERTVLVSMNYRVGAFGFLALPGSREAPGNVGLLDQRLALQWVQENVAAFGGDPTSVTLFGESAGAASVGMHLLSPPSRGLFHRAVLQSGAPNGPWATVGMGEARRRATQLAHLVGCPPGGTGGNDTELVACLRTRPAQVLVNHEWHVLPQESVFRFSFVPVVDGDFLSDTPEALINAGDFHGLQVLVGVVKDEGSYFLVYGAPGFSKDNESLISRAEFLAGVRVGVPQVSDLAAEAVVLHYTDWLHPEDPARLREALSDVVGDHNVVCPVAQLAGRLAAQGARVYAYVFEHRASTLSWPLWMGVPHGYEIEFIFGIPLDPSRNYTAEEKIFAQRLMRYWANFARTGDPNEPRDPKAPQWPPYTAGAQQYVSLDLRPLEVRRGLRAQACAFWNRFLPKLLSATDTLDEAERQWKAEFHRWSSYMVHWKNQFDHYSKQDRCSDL
Sequence of Acetylcholinesterase (Electrophorus electricus, UniProt O42275) (O42275 whole entry): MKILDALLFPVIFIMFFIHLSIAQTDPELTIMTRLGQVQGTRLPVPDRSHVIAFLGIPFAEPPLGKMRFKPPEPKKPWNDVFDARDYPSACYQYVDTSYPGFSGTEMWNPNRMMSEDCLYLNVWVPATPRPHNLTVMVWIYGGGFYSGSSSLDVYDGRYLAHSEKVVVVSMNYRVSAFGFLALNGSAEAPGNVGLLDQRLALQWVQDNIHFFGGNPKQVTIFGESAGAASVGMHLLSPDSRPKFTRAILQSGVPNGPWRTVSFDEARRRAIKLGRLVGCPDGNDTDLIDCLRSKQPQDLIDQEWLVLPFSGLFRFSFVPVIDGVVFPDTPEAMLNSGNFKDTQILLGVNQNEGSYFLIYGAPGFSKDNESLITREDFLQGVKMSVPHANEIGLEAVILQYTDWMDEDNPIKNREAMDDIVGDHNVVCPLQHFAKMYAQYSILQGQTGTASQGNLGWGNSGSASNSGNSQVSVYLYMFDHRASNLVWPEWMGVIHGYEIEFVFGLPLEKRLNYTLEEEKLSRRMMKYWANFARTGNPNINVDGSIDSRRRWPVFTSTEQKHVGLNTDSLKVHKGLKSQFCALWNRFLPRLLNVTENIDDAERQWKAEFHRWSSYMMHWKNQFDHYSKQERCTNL

Regarding `O=C(CCc1ccc2nc(-c3ccccc3)c3c(c2c1)OCCC3)NCCCCCCCCNc1c2c(nc3cc(Cl)ccc13)CCCC2`, the inhibition – broadly, the relative decrease from the control value, in per cent – in test [1] was 77.8%. Same read-out and setting: for `O=C(NCCCCCCCNc1c2c(nc3cc(Cl)ccc13)CCCC2)c1ccc2nc(-c3ccc(Cl)cc3)c3c(c2c1)OCCC3` the value was 14.5%. For `O=C(CCc1ccc2nc(-c3ccccc3)c3c(c2c1)OCCC3)NCCCCCCCNc1c2c(nc3cc(Cl)ccc13)CCCC2`, in test [1], the inhibition worked out at 34.4%. The IC50 (as a rule, the concentration that gives 50% inhibition) in test [2] amounted to 11.4 nM. The molecule `CCC1=CC2Cc3nc4cc(Cl)ccc4c(NCCCN4CCC(CC5Cc6cc(OC)c(OC)cc6C5)CC4)c3C(C1)C2` (racemic) had an inhibition in [3] of 18%. `O=C(NCCCCCCCCNc1c2c(nc3cc(Cl)ccc13)CCCC2)c1ccc2nc(-c3ccc(Cl)cc3)c3c(c2c1)OCCC3`: in test [1], the inhibition was 18.5%. Turning to `CC(C)=CCc1c(O)ccc(C(=O)/C=C/c2ccc(O)cc2)c1O`, the inhibition turned out to be 83% in [4] and 34% in test [5]. The corresponding values for `COc1cc2c(cc1CC=C(C)C)C(=O)CC(c1ccc(O)cc1)O2` (stereo unspecified) are 80% and 20%.

As to `O=C(CCc1ccc2nc(-c3ccccc3)c3c(c2c1)OCCC3)NCCCCCCNc1c2c(nc3cc(Cl)ccc13)CCCC2`, the inhibition in [1] came to 19.6%.

In [3], `CCC1=CC2Cc3nc4cc(Cl)ccc4c(NCCCN4CCC(CC5Cc6cc(OC)c(OC)cc6C5)CC4)c3C(C1)C2` (stereo in doubt; (-)-36b) returned an inhibition of 14.9%. Regarding `COc1cc(O)c(C(=O)/C=C/c2ccc(O)cc2)cc1CC=C(C)C`, the inhibition stood at 46% in [4] and 68% in test [5].

On to `CCCCCCCCCCCC1=CC(=O)C=CC1=O`, for which the IC50 in [6] was found to be 2500 nM; in test [7], 2110 nM; in test [8], 7910 nM. For `CC(C)=CCc1cc2c(cc1O)O[C@H](c1ccc(O)cc1)CC2=O`, the figures for the inhibition in [4] and in test [5] were 34% and 14%, respectively. In [3], `CCC1=CC2Cc3nc4cc(Cl)ccc4c(NCCN4CCC(CC5Cc6cc(OC)c(OC)cc6C5)CC4)c3C(C1)C2` (single isomer, unassigned; (-)) showed an inhibition of 12.5%. Half-maximal inhibition in test [2] (IC50) required 28.6 nM. On to `COc1cc(/C=C/c2nnc(-c3ccc(F)cc3)o2)ccc1O`, for which the IC50 in [9] came out at 0.479 nM; in [2], 0.284 nM.

As to `COc1cc2c(cc1OC)CC(CC1CCN(CCNc3c4c(nc5cc(Cl)ccc35)CC3C=C(C)CC4C3)CC1)C2` (stereo unspecified), the inhibition in test [3] is 24.6%. The same molecule registered a half-maximal inhibitory concentration (IC50) in test [2] of 13 nM. In test [3], `COc1cc2c(cc1OC)CC(CC1CCN(CCCNc3c4c(nc5cc(Cl)ccc35)CC3C=C(C)CC4C3)CC1)C2` (single isomer, unassigned; (-)) registered an inhibition of 30.8%.

`COc1cc2c(cc1OC)CC(CC1CCN(CCCNc3c4c(nc5cc(Cl)ccc35)CC3C=C(C)CC4C3)CC1)C2` (racemic) yielded an inhibition in test [3] of 29.1%. In the case of `COc1ccc(NC(=O)C2CCN(C(=O)c3ccccc3)CC2)cc1OC`, the figures for the IC50 in test [9] and in [2] were 18.3 nM and 4.11 nM, respectively. For `Cc1cc2c(c(C)c1CCO[C@@H]1O[C@H](CO)[C@@H](O)[C@H](O)[C@H]1O)C(=O)[C@H](C)[C@H]2O` the same measures were 9740 nM and 3770 nM.
